Laboratory results: ChEMBL document CHEMBL5150061, “Design and Synthesis of Fibroblast Growth Factor Receptor (FGFR) and Histone Deacetylase (HDAC) Dual Inhibitors for the Treatment of Cancer” (J Med Chem, 2022)

Legend:
[1] = Toxicity in BALB/c nude mouse xenografted with human HCT-116 cells assessed as reduction in body weight at 15 to 30 mg/kg/day, po administered for 18 days and measured every 3 days; type: organism-based; conditions: in vivo, 432 h, dose 15-30 mg/kg/day, time 18 day
[2] = Tmax in Sprague-Dawley rat at 5 mg/kg, ip measured for 24 hrs by LC-MS/MS-18 analysis; type: ADME, organism-based; conditions: in vivo
[3] = target: T1, Protein deacetylase HDAC6 (Homo sapiens, UniProt Q9UBN7); test: Inhibition of HDAC6 (unknown origin)
T1 sequence (Q9UBN7 whole entry): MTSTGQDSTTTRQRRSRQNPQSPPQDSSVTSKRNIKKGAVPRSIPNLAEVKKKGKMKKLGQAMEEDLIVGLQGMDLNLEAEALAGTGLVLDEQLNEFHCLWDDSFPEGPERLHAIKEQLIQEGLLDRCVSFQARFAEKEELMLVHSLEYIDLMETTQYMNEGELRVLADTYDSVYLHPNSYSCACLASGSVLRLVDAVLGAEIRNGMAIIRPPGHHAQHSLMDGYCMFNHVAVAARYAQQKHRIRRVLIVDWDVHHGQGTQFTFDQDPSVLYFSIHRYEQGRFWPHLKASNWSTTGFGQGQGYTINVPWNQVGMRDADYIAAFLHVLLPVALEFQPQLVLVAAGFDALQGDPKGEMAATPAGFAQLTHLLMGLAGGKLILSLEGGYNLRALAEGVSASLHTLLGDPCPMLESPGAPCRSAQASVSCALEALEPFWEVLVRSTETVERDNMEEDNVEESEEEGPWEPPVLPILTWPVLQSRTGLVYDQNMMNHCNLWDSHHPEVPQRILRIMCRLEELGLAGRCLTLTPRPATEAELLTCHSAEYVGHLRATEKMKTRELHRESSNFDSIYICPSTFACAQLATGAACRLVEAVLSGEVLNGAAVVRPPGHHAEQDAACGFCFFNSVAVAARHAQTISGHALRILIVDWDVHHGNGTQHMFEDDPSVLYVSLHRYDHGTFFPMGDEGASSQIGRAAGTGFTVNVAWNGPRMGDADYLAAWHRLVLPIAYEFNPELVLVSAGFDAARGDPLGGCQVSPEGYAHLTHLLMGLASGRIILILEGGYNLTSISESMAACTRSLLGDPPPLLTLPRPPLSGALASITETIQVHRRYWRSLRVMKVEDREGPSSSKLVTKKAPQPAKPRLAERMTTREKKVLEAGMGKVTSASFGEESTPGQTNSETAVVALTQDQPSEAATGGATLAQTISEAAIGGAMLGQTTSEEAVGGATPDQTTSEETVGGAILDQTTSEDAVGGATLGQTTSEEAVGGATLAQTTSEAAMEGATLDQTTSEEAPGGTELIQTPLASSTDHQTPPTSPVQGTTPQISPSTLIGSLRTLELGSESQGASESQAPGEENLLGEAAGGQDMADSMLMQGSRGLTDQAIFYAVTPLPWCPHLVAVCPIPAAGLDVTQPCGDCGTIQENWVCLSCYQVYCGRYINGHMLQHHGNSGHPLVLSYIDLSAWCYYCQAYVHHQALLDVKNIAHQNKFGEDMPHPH

Histone deacetylase 8 = target: T2, Histone deacetylase 8 (Homo sapiens, UniProt Q9BY41); test: Inhibition of HDAC8 (unknown origin)
T2 sequence (Q9BY41 whole entry): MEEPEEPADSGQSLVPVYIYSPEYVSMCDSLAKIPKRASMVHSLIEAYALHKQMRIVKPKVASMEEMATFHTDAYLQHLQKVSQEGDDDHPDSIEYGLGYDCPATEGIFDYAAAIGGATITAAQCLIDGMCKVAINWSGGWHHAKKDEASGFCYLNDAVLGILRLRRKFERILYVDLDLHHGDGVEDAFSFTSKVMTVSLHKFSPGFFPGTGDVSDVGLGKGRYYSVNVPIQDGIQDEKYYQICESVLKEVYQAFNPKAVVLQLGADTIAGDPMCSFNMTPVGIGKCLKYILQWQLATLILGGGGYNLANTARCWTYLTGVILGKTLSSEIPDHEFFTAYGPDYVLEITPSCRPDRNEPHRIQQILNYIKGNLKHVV

[4] = Tmax in Sprague-Dawley rat at 2 mg/kg, iv measured for 24 hrs by LC-MS/MS-18 analysis; type: ADME, organism-based; conditions: in vivo
[5] = Oral bioavailability in Sprague-Dawley rat at 5 mg/kg measured for 24 hrs by LC-MS/MS-18 analysis; type: ADME, organism-based; conditions: in vivo, route ip
[6] = AUC (0 to infinity) in Sprague-Dawley rat at 30 mg/kg, po measured for 24 hrs by LC-MS/MS-18 analysis; type: ADME, organism-based; design: dose 30 mg/kg, time 24 hrs, route po; conditions: in vivo
[7] = Toxicity in BALB/c nude mouse xenografted with human SNU-16 cells assessed as reduction in body weight at 15 to 30 mg/kg/day, ip administered for 18 days and measured every 3 days; type: organism-based; conditions: in vivo, 432 h, dose 15-30 mg/kg/day, time 18 day
[8] = Half life in Sprague-Dawley rat at 30 mg/kg, po measured for 24 hrs by LC-MS/MS-18 analysis; type: ADME, organism-based; conditions: in vivo
[9] = target: Fibroblast growth factor receptor 3 (Homo sapiens, UniProt P22607); test: Inhibition of FGFR3 (unknown origin)
Fibroblast growth factor receptor 3, sequence (P22607 whole entry): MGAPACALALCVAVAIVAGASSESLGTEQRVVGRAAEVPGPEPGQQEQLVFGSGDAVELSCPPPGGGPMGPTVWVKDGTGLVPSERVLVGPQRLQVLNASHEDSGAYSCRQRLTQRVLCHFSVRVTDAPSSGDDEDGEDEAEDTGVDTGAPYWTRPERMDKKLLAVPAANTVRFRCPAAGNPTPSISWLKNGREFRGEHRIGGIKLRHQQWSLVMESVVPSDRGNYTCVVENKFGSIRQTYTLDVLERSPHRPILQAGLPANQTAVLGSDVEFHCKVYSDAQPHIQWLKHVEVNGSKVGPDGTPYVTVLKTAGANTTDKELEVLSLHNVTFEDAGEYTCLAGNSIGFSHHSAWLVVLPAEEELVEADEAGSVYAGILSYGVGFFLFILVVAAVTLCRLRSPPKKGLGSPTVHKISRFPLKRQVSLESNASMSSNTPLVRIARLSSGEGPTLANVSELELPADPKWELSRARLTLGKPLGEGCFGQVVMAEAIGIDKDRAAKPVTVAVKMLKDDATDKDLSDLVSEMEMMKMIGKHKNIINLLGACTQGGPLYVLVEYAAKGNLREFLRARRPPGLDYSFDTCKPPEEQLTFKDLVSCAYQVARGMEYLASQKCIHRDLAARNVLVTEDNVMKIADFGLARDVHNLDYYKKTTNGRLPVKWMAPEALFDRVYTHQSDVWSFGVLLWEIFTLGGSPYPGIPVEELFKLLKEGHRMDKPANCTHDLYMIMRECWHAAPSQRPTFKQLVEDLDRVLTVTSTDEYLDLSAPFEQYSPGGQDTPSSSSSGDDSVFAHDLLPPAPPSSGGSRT

[10] = Cmax in Sprague-Dawley rat at 5 mg/kg, ip measured for 24 hrs by LC-MS/MS-18 analysis; type: ADME, organism-based; design: time 24 hrs, dose 5 mg/kg, route ip; conditions: in vivo
[11] = Cmax in Sprague-Dawley rat at 30 mg/kg, po measured for 24 hrs by LC-MS/MS-18 analysis; type: ADME, organism-based; design: dose 30 mg/kg, time 24 hrs, route po; conditions: in vivo
[12] = Volume of distribution at steady state in Sprague-Dawley rat at 2 mg/kg, iv measured for 24 hrs by LC-MS/MS-18 analysis; type: ADME, organism-based; conditions: in vivo, read-out: Vdss
[13] = Oral bioavailability in Sprague-Dawley rat at 30 mg/kg measured for 24 hrs by LC-MS/MS-18 analysis; type: ADME, organism-based; conditions: in vivo
[14] = AUC (0 to infinity) in Sprague-Dawley rat at 2 mg/kg, iv measured for 24 hrs by LC-MS/MS-18 analysis; type: ADME, organism-based; design: time 24 hrs, dose 2 mg/kg, route iv; conditions: in vivo
[15] = target: Fibroblast growth factor receptor 2 (Homo sapiens, UniProt P21802); test: Inhibition of FGFR2 (unknown origin)
Fibroblast growth factor receptor 2, sequence (P21802 whole entry): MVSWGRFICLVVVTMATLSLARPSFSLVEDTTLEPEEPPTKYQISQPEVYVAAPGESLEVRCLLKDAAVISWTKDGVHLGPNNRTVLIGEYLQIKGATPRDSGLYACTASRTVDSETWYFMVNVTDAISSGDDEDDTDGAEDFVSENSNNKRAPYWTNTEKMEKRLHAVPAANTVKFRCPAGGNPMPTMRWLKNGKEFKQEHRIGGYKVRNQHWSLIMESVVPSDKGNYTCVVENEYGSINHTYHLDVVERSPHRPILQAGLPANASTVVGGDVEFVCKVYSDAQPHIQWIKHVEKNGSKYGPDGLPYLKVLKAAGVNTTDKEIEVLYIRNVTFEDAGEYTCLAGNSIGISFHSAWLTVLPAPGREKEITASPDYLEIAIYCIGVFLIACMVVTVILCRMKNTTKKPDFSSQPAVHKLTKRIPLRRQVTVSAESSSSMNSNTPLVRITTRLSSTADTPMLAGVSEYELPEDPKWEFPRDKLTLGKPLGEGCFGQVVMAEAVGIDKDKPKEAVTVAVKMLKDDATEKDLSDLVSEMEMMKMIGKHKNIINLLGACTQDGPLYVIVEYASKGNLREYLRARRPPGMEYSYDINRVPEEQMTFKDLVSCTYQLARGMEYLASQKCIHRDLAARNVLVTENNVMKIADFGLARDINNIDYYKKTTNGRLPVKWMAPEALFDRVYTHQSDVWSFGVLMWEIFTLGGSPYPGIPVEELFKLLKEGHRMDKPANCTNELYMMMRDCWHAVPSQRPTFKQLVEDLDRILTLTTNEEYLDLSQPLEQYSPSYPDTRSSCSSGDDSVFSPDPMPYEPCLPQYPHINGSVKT

[16] = Tmax in Sprague-Dawley rat at 30 mg/kg, po measured for 24 hrs by LC-MS/MS-18 analysis; type: ADME, organism-based; conditions: in vivo
[17] = AUC (0 to infinity) in Sprague-Dawley rat at 5 mg/kg, ip measured for 24 hrs by LC-MS/MS-18 analysis; type: ADME, organism-based; design: time 24 hrs, dose 5 mg/kg, route ip; conditions: in vivo
[18] = target: Fibroblast growth factor receptor 4 (Homo sapiens, UniProt P22455); test: Inhibition of FGFR4 (unknown origin)
Fibroblast growth factor receptor 4, sequence (P22455 whole entry): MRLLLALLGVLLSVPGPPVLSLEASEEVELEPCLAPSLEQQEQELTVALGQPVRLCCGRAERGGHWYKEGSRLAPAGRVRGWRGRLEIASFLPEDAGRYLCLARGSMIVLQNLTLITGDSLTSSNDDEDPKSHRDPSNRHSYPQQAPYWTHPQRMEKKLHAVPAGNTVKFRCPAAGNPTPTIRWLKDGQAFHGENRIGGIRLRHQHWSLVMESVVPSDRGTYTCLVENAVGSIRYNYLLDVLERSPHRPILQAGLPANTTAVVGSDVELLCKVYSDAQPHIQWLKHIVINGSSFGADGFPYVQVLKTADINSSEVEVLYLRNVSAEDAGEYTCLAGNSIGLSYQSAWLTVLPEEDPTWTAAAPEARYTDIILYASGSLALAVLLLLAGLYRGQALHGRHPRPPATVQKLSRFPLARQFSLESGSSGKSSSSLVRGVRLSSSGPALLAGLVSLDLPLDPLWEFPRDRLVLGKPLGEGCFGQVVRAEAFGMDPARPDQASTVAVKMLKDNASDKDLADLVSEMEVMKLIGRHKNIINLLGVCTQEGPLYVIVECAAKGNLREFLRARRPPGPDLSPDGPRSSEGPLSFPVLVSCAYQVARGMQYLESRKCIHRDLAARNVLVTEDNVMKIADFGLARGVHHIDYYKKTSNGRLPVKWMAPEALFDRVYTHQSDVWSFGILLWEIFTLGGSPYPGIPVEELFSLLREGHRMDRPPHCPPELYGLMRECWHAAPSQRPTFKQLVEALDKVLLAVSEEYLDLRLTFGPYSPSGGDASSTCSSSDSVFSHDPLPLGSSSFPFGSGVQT

Histone deacetylase 1 = Histone deacetylase 1 (Homo sapiens, UniProt Q13547); test: Inhibition of HDAC1 (unknown origin)
Histone deacetylase 1, sequence (Q13547 whole entry): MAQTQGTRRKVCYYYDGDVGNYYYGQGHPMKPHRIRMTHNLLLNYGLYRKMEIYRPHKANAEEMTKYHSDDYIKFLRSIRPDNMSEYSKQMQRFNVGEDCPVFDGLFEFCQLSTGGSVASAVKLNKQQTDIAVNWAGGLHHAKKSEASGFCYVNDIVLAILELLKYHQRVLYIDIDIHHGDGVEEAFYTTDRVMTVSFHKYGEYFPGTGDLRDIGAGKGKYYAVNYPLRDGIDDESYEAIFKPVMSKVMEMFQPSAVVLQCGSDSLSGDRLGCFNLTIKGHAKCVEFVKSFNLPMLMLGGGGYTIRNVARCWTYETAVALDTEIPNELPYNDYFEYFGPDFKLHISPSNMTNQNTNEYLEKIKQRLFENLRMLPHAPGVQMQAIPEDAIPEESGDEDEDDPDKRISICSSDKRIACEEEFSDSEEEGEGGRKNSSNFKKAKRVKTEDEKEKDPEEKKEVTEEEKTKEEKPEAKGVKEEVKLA

[19] = Half life in Sprague-Dawley rat at 2 mg/kg, iv measured for 24 hrs by LC-MS/MS-18 analysis; type: ADME, organism-based; conditions: in vivo
[20] = Clearance in Sprague-Dawley rat at 2 mg/kg, iv measured for 24 hrs by LC-MS/MS-18 analysis; type: ADME, organism-based; conditions: in vivo
[21] = Half life in Sprague-Dawley rat at 5 mg/kg, ip measured for 24 hrs by LC-MS/MS-18 analysis; type: ADME, organism-based; conditions: in vivo
[22] = Cmax in Sprague-Dawley rat at 2 mg/kg, iv measured for 24 hrs by LC-MS/MS-18 analysis; type: ADME, organism-based; design: time 24 hrs, dose 2 mg/kg, route iv; conditions: in vivo
Histone deacetylase 2 = Histone deacetylase 2 (Homo sapiens, UniProt Q92769); test: Inhibition of HDAC2 (unknown origin)
Histone deacetylase 2, sequence (Q92769 whole entry): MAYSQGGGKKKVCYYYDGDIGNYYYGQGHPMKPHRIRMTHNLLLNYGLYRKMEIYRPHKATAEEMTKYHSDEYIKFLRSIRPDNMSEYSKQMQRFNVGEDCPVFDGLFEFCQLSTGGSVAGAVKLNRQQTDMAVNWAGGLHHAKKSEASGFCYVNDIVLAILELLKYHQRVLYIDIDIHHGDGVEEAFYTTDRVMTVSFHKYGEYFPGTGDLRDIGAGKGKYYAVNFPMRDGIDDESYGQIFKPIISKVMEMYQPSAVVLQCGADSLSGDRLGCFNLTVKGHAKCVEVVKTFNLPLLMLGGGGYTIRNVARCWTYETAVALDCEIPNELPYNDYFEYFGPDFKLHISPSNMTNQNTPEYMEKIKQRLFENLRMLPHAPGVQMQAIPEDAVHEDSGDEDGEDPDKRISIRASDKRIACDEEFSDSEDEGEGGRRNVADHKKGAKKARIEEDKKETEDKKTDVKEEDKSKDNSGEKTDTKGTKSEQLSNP

Tmax [2]: 2 h
IC50 [3]: 2.6 nM
IC50 (Histone deacetylase 8): 13 nM
Tmax [4]: 4.8 min
bioavailability [5]: 43.8%
AUC(0-inf) [6]: 1560 ng·h/mL
half-life [8]: 0.77 h
IC50 [9]: 0.46 nM
Cmax [10]: 102 ng/mL
Cmax [11]: 443 ng/mL
Vd [12]: 2.79 L/kg
bioavailability [13]: 24.8%
AUC(0-inf) [14]: 425 ng·h/mL
IC50 [15]: 1.2 nM
Tmax [16]: 4 h
AUC(0-inf) [17]: 491 ng·h/mL
IC50 [18]: 1.4 nM
IC50 (Histone deacetylase 1): 1.3 nM
half-life [19]: 0.98 h
clearance [20]: 80.6 mL/min/kg
half-life [21]: 1.83 h
Cmax [22]: 1120 ng/mL
IC50 (Histone deacetylase 2): 1.6 nM
Compound: COc1cc(OC)cc(N(CCNC(C)C)c2ccc3ncc(-c4cnn(CCCCCCC(=O)NO)c4)nc3c2)c1
Activity [1]: Non-Toxic
Activity [7]: Non-Toxic
